As usually defined, the IC50 is the midpoint of a concentration-inhibition curve. Low values mean higher potency, high ones lower potency.

Experimental findings from patent publication US12291519B2, “2-hydroxycycloalkane-1-carbamoyl” (Idorsia Pharmaceuticals Ltd, priority 2019, dated 2025) are described below.

One test addresses human Gal-3 (hGal-3) (Homo sapiens (Human), UniProt P17931). Description: Competitive binding assay: biotinylated hGal-3 binding to microplate-adsorbed asialofetuin (ASF). The note with it: Activity on hGal-3; binding of biotinylated hGal-3 to ASF-coated plates; mean values. The gist of the method:
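Serially diluted compounds competed with biotinylated human Gal-3 for binding to plate-adsorbed asialofetuin over 3 h at 4 °C. Bound Gal-3 was detected with streptavidin-peroxidase (80 ng/mL, 1 h, 4 °C) and ABTS substrate. IC50 values are means of several measurements.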

Another test addresses human Gal-1 (hGal-1). Nature of the test: Competitive binding assay: biotinylated hGal-1 binding to microplate-adsorbed asialofetuin (ASF). To be noted: Activity on hGal-1; binding of biotinylated hGal-1 to ASF-coated plates; mean values. In outline:
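Biotinylated hGal-1 (300–1000 ng/mL; optionally a cysteine-free all-serine variant) incubated 3 h at 4 °C with compound on asialofetuin-coated plates, then streptavidin-peroxidase 1 h at 4 °C. ABTS readout at OD 410 nm after 30–45 min; IC50 given as mean of several runs.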

Sequence of human Gal-1 (hGal-1) (P09382 2-135 limits assumed): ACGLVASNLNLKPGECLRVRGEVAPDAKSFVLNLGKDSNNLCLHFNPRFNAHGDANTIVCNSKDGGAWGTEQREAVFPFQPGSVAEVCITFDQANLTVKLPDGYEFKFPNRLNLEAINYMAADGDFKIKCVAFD
Sequence of human Gal-3 (hGal-3) (P17931 whole entry): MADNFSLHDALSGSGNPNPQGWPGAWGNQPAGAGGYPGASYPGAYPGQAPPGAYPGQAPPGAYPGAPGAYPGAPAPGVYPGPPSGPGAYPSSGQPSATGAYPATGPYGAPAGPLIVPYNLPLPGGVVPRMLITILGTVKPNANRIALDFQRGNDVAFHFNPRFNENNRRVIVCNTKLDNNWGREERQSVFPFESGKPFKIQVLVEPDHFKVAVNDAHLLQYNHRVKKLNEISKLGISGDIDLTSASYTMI

Take `CO[C@@H]1[C@@H](n2cc(-c3cc(F)c(F)c(F)c3)nn2)[C@@H](O)[C@@H](CO)O[C@H]1C(=O)N(c1ccc2nc(C)sc2c1)[C@H]1CCCC[C@@H]1O` [Example 94, (2R,3R,4S,5R,6R)-5-hydroxy-N-((1S,2S)-2-hydroxycyclohexyl)-6-(hydroxymethyl)-3-methoxy-N-(2-methylbenzo[d]thiazol-6-yl)-4-(4-(3,4,5-trifluorophenyl)-1H-1,2,3-triazol-1-yl)tetrahydro-2H-pyran-2-carboxamide]: the IC50 at human Gal-3 (hGal-3) is 31 nM; at human Gal-1 (hGal-1), 254 nM.
On the same counts, the results for `CO[C@@H]1[C@@H](n2cc(-c3cc(F)c(F)c(F)c3)nn2)[C@@H](O)[C@@H](CO)O[C@H]1C(=O)N(c1cc(Cl)cc(C(F)(F)F)c1)[C@H]1CCCC[C@@H]1O` [Example 95, (2R,3R,4S,5R,6R)-N-(3-chloro-5-(trifluoromethyl)phenyl)-5-hydroxy-N-((1S,2S)-2-hydroxycyclohexyl)-6-(hydroxymethyl)-3-methoxy-4-(4-(3,4,5-trifluorophenyl)-1H-1,2,3-triazol-1-yl)tetrahydro-2H-pyran-2-carboxamide] are 16 nM and 398 nM.
With `CO[C@@H]1[C@@H](n2cc(-c3cc(F)c(F)c(F)c3)nn2)[C@@H](O)[C@@H](CO)O[C@H]1C(=O)N(c1cc(Cl)cc(Br)c1)[C@H]1CCCC[C@@H]1O` [Example 96, (2R,3R,4S,5R,6R)-N-(3-bromo-5-chlorophenyl)-5-hydroxy-N-((1S,2S)-2-hydroxycyclohexyl)-6-(hydroxymethyl)-3-methoxy-4-(4-(3,4,5-trifluorophenyl)-1H-1,2,3-triazol-1-yl)tetrahydro-2H-pyran-2-carboxamide], the concentration for half-maximal inhibition (IC50) at human Gal-3 (hGal-3) was 14 nM; on human Gal-1 (hGal-1), 403 nM.
On the same counts, the results for `CO[C@@H]1[C@@H](n2cc(-c3cc(F)c(F)c(F)c3)nn2)[C@@H](O)[C@@H](CO)O[C@H]1C(=O)N(c1cc(Br)cc(Br)c1)[C@H]1CCCC[C@@H]1O` [Example 97, (2R,3R,4S,5R,6R)-N-(3,5-dibromophenyl)-5-hydroxy-N-((1S,2S)-2-hydroxycyclohexyl)-6-(hydroxymethyl)-3-methoxy-4-(4-(3,4,5-trifluorophenyl)-1H-1,2,3-triazol-1-yl)tetrahydro-2H-pyran-2-carboxamide] are 13 nM and 266 nM.
In the same order, the values of `CO[C@@H]1[C@@H](n2cc(-c3cc(F)c(F)c(F)c3)nn2)[C@@H](O)[C@@H](CO)O[C@H]1C(=O)N(c1ccc(Cl)c(Br)c1)[C@H]1CCCC[C@@H]1O` [Example 99, (2R,3R,4S,5R,6R)-N-(3-bromo-4-chlorophenyl)-5-hydroxy-N-((1S,2S)-2-hydroxycyclohexyl)-6-(hydroxymethyl)-3-methoxy-4-(4-(3,4,5-trifluorophenyl)-1H-1,2,3-triazol-1-yl)tetrahydro-2H-pyran-2-carboxamide] are 32 nM and 377 nM.
Regarding `CO[C@@H]1[C@@H](n2cc(-c3cc(F)c(F)c(F)c3)nn2)[C@@H](O)[C@@H](CO)O[C@H]1C(=O)N(c1ccccc1)[C@H]1CCCC[C@@H]1O` [Example 100, (2R,3R,4S,5R,6R)-5-hydroxy-N-((1S,2S)-2-hydroxycyclohexyl)-6-(hydroxymethyl)-3-methoxy-N-phenyl-4-(4-(3,4,5-trifluorophenyl)-1H-1,2,3-triazol-1-yl)tetrahydro-2H-pyran-2-carboxamide], the results for the IC50 at human Gal-3 (hGal-3) and on human Gal-1 (hGal-1) were 73 nM and 18600 nM, respectively.
In the same order, the values of `COc1cccc(N(C(=O)[C@@H]2O[C@H](CO)[C@H](O)[C@H](n3cc(-c4cc(F)c(F)c(F)c4)nn3)[C@H]2OC)[C@H]2CCCC[C@@H]2O)c1` [Example 101, (2R,3R,4S,5R,6R)-5-hydroxy-N-((1S,2S)-2-hydroxycyclohexyl)-6-(hydroxymethyl)-3-methoxy-N-(3-methoxyphenyl)-4-(4-(3,4,5-trifluorophenyl)-1H-1,2,3-triazol-1-yl)tetrahydro-2H-pyran-2-carboxamide] are 36 nM and 800 nM.
On to `CO[C@@H]1[C@@H](n2cc(-c3cc(F)c(F)c(F)c3)nn2)[C@@H](O)[C@@H](CO)O[C@H]1C(=O)N(c1ccc2ccsc2c1)[C@H]1CCCC[C@@H]1O` [Example 102, (2R,3R,4S,5R,6R)-N-(benzo[b]thiophen-6-yl)-5-hydroxy-N-((1S,2S)-2-hydroxycyclohexyl)-6-(hydroxymethyl)-3-methoxy-4-(4-(3,4,5-trifluorophenyl)-1H-1,2,3-triazol-1-yl)tetrahydro-2H-pyran-2-carboxamide], for which the 50% inhibitory concentration (IC50) worked out at 43 nM on human Gal-3 (hGal-3) and 1240 nM at human Gal-1 (hGal-1).
On to `CO[C@@H]1[C@@H](n2cc(-c3cc(F)c(F)c(F)c3)nn2)[C@@H](O)[C@@H](CO)O[C@H]1C(=O)N(c1cccc(Br)c1)[C@H]1CCCC[C@@H]1O` [Example 103, (2R,3R,4S,5R,6R)-N-(3-bromophenyl)-5-hydroxy-N-((1S,2S)-2-hydroxycyclohexyl)-6-(hydroxymethyl)-3-methoxy-4-(4-(3,4,5-trifluorophenyl)-1H-1,2,3-triazol-1-yl)tetrahydro-2H-pyran-2-carboxamide], for which the concentration for half-maximal inhibition (IC50) at human Gal-3 (hGal-3) came out at 25 nM; at human Gal-1 (hGal-1), 238 nM.
On the same counts, the results for `COc1cc(Cl)cc(N(C(=O)[C@@H]2O[C@H](CO)[C@H](O)[C@H](n3cc(-c4cc(F)c(F)c(F)c4)nn3)[C@H]2OC)[C@H]2CCCC[C@@H]2O)c1` [Example 104, (2R,3R,4S,5R,6R)-N-(3-chloro-5-methoxyphenyl)-5-hydroxy-N-((1S,2S)-2-hydroxycyclohexyl)-6-(hydroxymethyl)-3-methoxy-4-(4-(3,4,5-trifluorophenyl)-1H-1,2,3-triazol-1-yl)tetrahydro-2H-pyran-2-carboxamide] are 19 nM and 1190 nM.
On the same counts, the results for `CO[C@@H]1[C@@H](n2cc(-c3cc(F)c(F)c(F)c3)nn2)[C@@H](O)[C@@H](CO)O[C@H]1C(=O)N(c1cc(Cl)ccc1F)[C@H]1CCCC[C@@H]1O` [Example 105, (2R,3R,4S,5R,6R)-N-(5-chloro-2-fluorophenyl)-5-hydroxy-N-((1S,2S)-2-hydroxycyclohexyl)-6-(hydroxymethyl)-3-methoxy-4-(4-(3,4,5-trifluorophenyl)-1H-1,2,3-triazol-1-yl)tetrahydro-2H-pyran-2-carboxamide] are 14 nM and 136 nM.
Consider `CO[C@@H]1[C@@H](n2cc(-c3cc(F)c(F)c(F)c3)nn2)[C@@H](O)[C@@H](CO)O[C@H]1C(=O)N(c1cc2sc(C)nc2cc1C)[C@H]1CCCC[C@@H]1O` [Example 106, (2R,3R,4S,5R,6R)-N-(2,5-dimethylbenzo[d]thiazol-6-yl)-5-hydroxy-N-((1S,2S)-2-hydroxycyclohexyl)-6-(hydroxymethyl)-3-methoxy-4-(4-(3,4,5-trifluorophenyl)-1H-1,2,3-triazol-1-yl)tetrahydro-2H-pyran-2-carboxamide], for which the IC50 at human Gal-3 (hGal-3) worked out at 56 nM; on human Gal-1 (hGal-1), 143 nM.
On the same counts, the results for `CO[C@@H]1[C@@H](n2cc(-c3cc(F)c(F)c(F)c3)nn2)[C@@H](O)[C@@H](CO)O[C@H]1C(=O)N(c1ccc2nc(Cl)sc2c1)[C@H]1CCCC[C@@H]1O` [Example 107, (2R,3R,4S,5R,6R)-N-(2-chlorobenzo[d]thiazol-6-yl)-5-hydroxy-N-((1S,2S)-2-hydroxycyclohexyl)-6-(hydroxymethyl)-3-methoxy-4-(4-(3,4,5-trifluorophenyl)-1H-1,2,3-triazol-1-yl)tetrahydro-2H-pyran-2-carboxamide] are 317 nM and 1200 nM.
For `COc1cc(C#N)cc(N(C(=O)[C@@H]2O[C@H](CO)[C@H](O)[C@H](n3cc(-c4cc(F)c(F)c(F)c4)nn3)[C@H]2OC)[C@H]2CCCC[C@@H]2O)c1` [Example 108, (2R,3R,4S,5R,6R)-N-(3-cyano-5-methoxyphenyl)-5-hydroxy-N-((1S,2S)-2-hydroxycyclohexyl)-6-(hydroxymethyl)-3-methoxy-4-(4-(3,4,5-trifluorophenyl)-1H-1,2,3-triazol-1-yl)tetrahydro-2H-pyran-2-carboxamide], the IC50 on human Gal-3 (hGal-3) stood at 24 nM; at human Gal-1 (hGal-1), 1570 nM.
On the same counts, the results for `CO[C@@H]1[C@@H](n2cc(-c3cc(F)c(F)c(F)c3)nn2)[C@@H](O)[C@@H](CO)O[C@H]1C(=O)N(c1cc(Br)ccc1C)[C@H]1CCCC[C@@H]1O` [Example 109, (2R,3R,4S,5R,6R)-N-(5-bromo-2-methylphenyl)-5-hydroxy-N-((1S,2S)-2-hydroxycyclohexyl)-6-(hydroxymethyl)-3-methoxy-4-(4-(3,4,5-trifluorophenyl)-1H-1,2,3-triazol-1-yl)tetrahydro-2H-pyran-2-carboxamide] are 17 nM and 100 nM.
In the same order, the values of `CO[C@@H]1[C@@H](n2cc(-c3cc(F)c(F)c(F)c3)nn2)[C@@H](O)[C@@H](CO)O[C@H]1C(=O)N(c1ccc(Cl)cc1)[C@H]1CCCC[C@@H]1O` [Example 111, (2R,3R,4S,5R,6R)-N-(4-chlorophenyl)-5-hydroxy-N-((1S,2S)-2-hydroxycyclohexyl)-6-(hydroxymethyl)-3-methoxy-4-(4-(3,4,5-trifluorophenyl)-1H-1,2,3-triazol-1-yl)tetrahydro-2H-pyran-2-carboxamide] are 158 nM and 4220 nM.
`CO[C@@H]1[C@@H](n2cc(-c3cc(F)c(F)c(F)c3)nn2)[C@@H](O)[C@@H](CO)O[C@H]1C(=O)N(c1cc(F)cc(C#N)c1)[C@H]1CCCC[C@@H]1O` [Example 113, (2R,3R,4S,5R,6R)-N-(3-cyano-5-fluorophenyl)-5-hydroxy-N-((1S,2S)-2-hydroxycyclohexyl)-6-(hydroxymethyl)-3-methoxy-4-(4-(3,4,5-trifluorophenyl)-1H-1,2,3-triazol-1-yl)tetrahydro-2H-pyran-2-carboxamide]: the results for the IC50 at human Gal-3 (hGal-3) and at human Gal-1 (hGal-1) were 18 nM and 520 nM, respectively.
